Measured values published in US20240350422A1, “FORMULATION PROCESS FOR CPMV NANOPARTICLES” (The Regents of the University of California, priority 2021, published 2024).
Where no end group is shown, it is not given here.

B1: TMV-Cy5.5 (+F127): Cy5.5 conjugated to TMV lysines via NHS ester, COAT method; Table 4 row Cy5.5 NHS (+F127) (conjugate, UniProt P69687 2-159, looked up)
Capsid protein: SYSITTPSQFVFLSSAWADPIELINLCTNALGNQFQTQQARTVVQRQFSEVWKPSPQVTVRFPDSDFKVYRYNAVLDPLVTALLGAFDTRNRIIEVENQANPTTAETLDATRRVDDATVAIRSAINNLIVELIRGTGSYNRSSFESSSGLVWTSGPAT
modifications: Cy5.5 dye, F127 coated virion
B2: TMV-Cy5.5 (−F127): Cy5.5 conjugated to uncoated TMV, control; Table 4 row Cy5.5 NHS (−F127) (conjugate, UniProt P69687 2-159, looked up)
Capsid protein: B1 Capsid protein
modifications: Cy5.5 dye on whole virion

Legend:
[1] = Observed water / reaction buffer solubility of ligands; details: for solubility in the reaction buffer: 0.01 M potassium phosphate reaction buffer (pH 7.4); for Observed water solubility: Table 1
[2] = Dynamic light scattering (DLS) of plant VNPs and conjugates; assay type: physicochemical; details: purified conjugate particles; (+F127) = COAT/FORMCOAT, (−F127) = uncoated control
Experimental: DLS. The hydrodynamic diameter of native and conjugated plant VNPs was determined by diluting the samples to 1 mg/mL in 0.01 M potassium phosphate buffer (pH 7.4) followed by measurement using a Zetasizer Nano ZSP/Zen5600 instrument (Malvern Panalytical, Malvern, UK). The particle length was calculated as the weighted mean of the intensity distribution.

[3] = Aggregation / dispersion of conjugate particles (photograph, DLS, TEM); assay type: physicochemical; details: pH 7.4

Molecule | solubility in the reaction buffer [1] | Observed water solubility [1] | PDI [2] | Z-average [2] | aggregation / dispersion of the particles [3]
CC[C@H](C)[C@H](NC(=O)[C@H](Cc1c[nH]c2ccccc12)NC(=O)CNC(=O)[C@H](CCCNC(=N)N)NC(=O)[C@@H](NC(=O)[C@@H](NC(=O)[C@H](CC(N)=O)NC(=O)[C@H](CO)NC(=O)[C@H](CCCCN)NC(=O)[C@H](CCC(=O)O)NC(=O)[C@@H](NC(=O)[C@H](CO)NC(=O)[C@H](C)NC(=O)[C@H](Cc1ccccc1)NC(=O)CNC(=O)CNC(=O)CNC(=O)[C@@H](N)CS)[C@@H](C)O)[C@@H](C)CC)[C@@H](C)CC)C(=O)N[C@@H](Cc1ccccc1)C(=O)O [COVID-106] | insoluble | Poor | – | – | –
CSCC[C@H](NC(=O)[C@H](Cc1c[nH]c2ccccc12)NC(=O)[C@H](CO)NC(=O)[C@H](CCCCN)NC(=O)[C@H](CC(N)=O)NC(=O)[C@H](CC(N)=O)NC(=O)[C@H](CCCCN)NC(=O)[C@H](Cc1c[nH]cn1)NC(=O)[C@H](Cc1ccc(O)cc1)NC(=O)[C@H](Cc1ccc(O)cc1)NC(=O)[C@@H](NC(=O)CNC(=O)[C@H](CC(C)C)NC(=O)[C@H](Cc1ccccc1)NC(=O)[C@@H]1CCCN1C(=O)CNC(=O)CNC(=O)CNC(=O)[C@@H](N)CS)C(C)C)C(=O)O [COVID-153] | insoluble | Poor | – | – | –
CC(C)C[C@H](NC(=O)[C@H](Cc1ccc(O)cc1)NC(=O)[C@H](CC(N)=O)NC(=O)[C@H](Cc1ccc(O)cc1)NC(=O)[C@H](CC(N)=O)NC(=O)CNC(=O)CNC(=O)[C@@H](NC(=O)[C@H](CCCCN)NC(=O)[C@H](CO)NC(=O)[C@H](CC(=O)O)NC(=O)[C@H](CC(C)C)NC(=O)[C@H](CC(N)=O)NC(=O)[C@H](CC(N)=O)NC(=O)CNC(=O)CNC(=O)CNC(=O)[C@@H](N)CS)C(C)C)C(=O)N[C@@H](Cc1ccc(O)cc1)C(=O)N[C@@H](CCCNC(=N)N)C(=O)O [COVID-454] | insoluble | Poor | – | – | –
CC[C@H](C)[C@H](NC(=O)[C@H](Cc1ccccc1)NC(=O)[C@H](CO)NC(=O)[C@H](CCCNC(=N)N)NC(=O)[C@H](CCCCN)NC(=O)[C@H](CO)NC(=O)[C@@H]1CCCN1C(=O)[C@H](CCCCN)NC(=O)[C@H](CO)NC(=O)[C@@H]1CCCN1C(=O)CNC(=O)CNC(=O)CNC(=O)[C@@H](N)CS)C(=O)N[C@@H](CCC(=O)O)C(=O)N[C@@H](CC(=O)O)C(=O)N[C@@H](CC(C)C)C(=O)N[C@@H](CC(C)C)C(=O)N[C@@H](Cc1ccccc1)C(=O)N[C@@H](CC(N)=O)C(=O)N[C@@H](CCCCN)C(=O)N[C@H](C(=O)O)C(C)C [COVID-826] | – | Good | – | – | –
CGGGVFLQKYPHTHLVHQA [Myostatin 1] | – | Good | – | – | –
CSGGGDWFKAFYDKVAEKFKEAF [ApoAI-4FN] | – | Good | – | – | –
CSGGGWGWSLSHGYQVK [ScG3] | – | Good | – | – | –
YQDMVLWKDVFRKNNQLAPVGPSLC [CH401-Rat] | insoluble | Poor | – | – | –
B1 | – | – | 0.236 | 277.6 nm | dispersed and soluble, with no visible signs of aggregation
B2 | – | – | 0.749 | 436.8 nm | prone to aggregation
